Experimental findings from patent US3940413A, “1-Ethyl-imidazoles” (Bayer Aktiengesellschaft, priority 1972, dated 1976) are described below.

In brackets after ≈: the same amount, converted by molar mass. Bounds are passed on as bounds.

Assay in all cases: antimycotic action spectrum in vitro, series dilution test
What all share (type): cell-based

For test [1], the system named is Penicillium commune. The settings on record: in nutrient medium, 28°C, 24 to 96 hours; for MIC: Penicillium commune, read-out: Minimum inhibitory concentration, Penicillium commune. Here is the method: (§1) Determination of the anti-mycotic action spectrum in vitro by the series dilution test.
(§2) The nutrient substrates used were, for dermatophytes and moulds, Sabourauds' test medium, and, for blastomyces and biphase fungi, meat broth-glucose bouillon.
(§3) The incubation temperature was 28°C and the incubation time was 24 to 96 hours.

Test [2] relates to Candida albicans. The settings on record: in nutrient medium, 28°C, 24 to 96 hours; for MIC: Candida albicans, read-out: Minimum inhibitory concentration, Candida albicans. On the procedure:
as §1, §2, §3

Test [3] deals with Aspergillus niger. The settings on record: in nutrient medium, 28°C, 24 to 96 hours; for MIC: Aspergillus niger, read-out: Minimum inhibitory concentration, Aspergillus niger. On the procedure:
as §1, §2, §3

Test [4] has as its system Trichophyton mentagrophytes. Particulars: in nutrient medium, Sabourauds' test medium, 28°C, 24 to 96 hours; for MIC: Trichophyton mentagrophytes, read-out: Minimum inhibitory concentration, Trichophyton mentagrophytes. Here is the method:
as §1, §2, §3

Regarding `CC(C)(C)C(=O)C(Cn1ccnc1)Oc1ccc(Cl)cc1` (centres unmarked) [Example 4, 2-(4-chlorophenoxy)-1-imidazolyl-(1)-4,4-dimethyl-pentan-3-one], in test [1], the “Minimum inhibitory concentration, Penicillium commune” value was 32 µg/mL (≈ 104 µM). For the same molecule, the “Minimum inhibitory concentration, Candida albicans” value in test [2] worked out at 4 µg/mL (≈ 13 µM). In addition, the “Minimum inhibitory concentration, Aspergillus niger” value in test [3] worked out at 4 µg/mL (≈ 13 µM). The “Minimum inhibitory concentration, Trichophyton mentagrophytes” value in test [4] came out at 4 µg/mL (≈ 13 µM).

On to `CC(C)(C)C(=O)C(Cn1ccnc1)Oc1ccccc1-c1ccccc1` (centres unmarked) [Example 13, 2-(2-phenylphenoxy)-1-imidazolyl-(1)-4,4-dimethyl-pentan-3-one], for which the MIC in test [1] came to 16 µg/mL (≈ 45.9 µM); in test [2] it was 4 µg/mL (≈ 11.5 µM); in test [3] it was 8 µg/mL (≈ 23 µM); in test [4] it was 8 µg/mL (≈ 23 µM).

For the molecule `CC(C)(C)C(=O)C(Cn1ccnc1)Oc1ccc(-c2ccccc2)cc1` (centres unmarked) [Example 14, 2-(4-phenylphenoxy)-1-imidazolyl-(1)-4,4-dimethyl-pentan-3-one], the MIC was 8 µg/mL (≈ 23 µM) in test [1], 4 µg/mL (≈ 11.5 µM) in test [2], 8 µg/mL (≈ 23 µM) in test [3] and < 1 µg/mL in test [4].

On to `CC(C)(C)C(=O)C(Cn1ccnc1)Oc1cc(Cl)c(Cl)cc1Cl` (centres unmarked) [Example 10, 2-(2,4,5-trichlorophenoxy)-1-imidazolyl-(1)-4,4-dimethyl-pentan-3-one], for which the MIC worked out at 16 µg/mL (≈ 42.6 µM) in test [1], 4 µg/mL (≈ 10.6 µM) in test [2], 4 µg/mL (≈ 10.6 µM) in test [3] and 4 µg/mL (≈ 10.6 µM) in test [4].

With `CC(C)(C)C(=O)C(Cn1ccnc1)Oc1ccc(Cl)cc1` (centres unmarked) [Example 1, 2-(4-chlorophenoxy)-1-imidazolyl-(1)-4,4-dimethyl-pentan-3-one], the MIC in test [1] stood at 32 µg/mL (≈ 104 µM); in test [2] it was 4 µg/mL (≈ 13 µM); in test [3], 8 µg/mL (≈ 26.1 µM); in test [4], 4 µg/mL (≈ 13 µM).

Take `CC(C)(C)C(=O)C(Cn1ccnc1)Oc1ccc(Cl)cc1Cl` (centres unmarked) [Example 5, 2-(2,4-dichlorophenoxy)-1-imidazolyl-(1)-4,4-dimethyl-pentan-3-one]: the MIC was 16 µg/mL (≈ 46.9 µM) in test [1], 4 µg/mL (≈ 11.7 µM) in test [2], 4 µg/mL (≈ 11.7 µM) in test [3] and < 1 µg/mL in test [4].

Turning to `Cc1cc(Cl)ccc1OC(Cn1ccnc1)C(=O)C(C)(C)C` (centres unmarked) [Example 12], the MIC in test [1] is 8 µg/mL (≈ 24.9 µM); in test [2], 4 µg/mL (≈ 12.5 µM); in test [3], 8 µg/mL (≈ 24.9 µM); in test [4], < 1 µg/mL.

As to `CC(C)(C)C(=O)C(Cn1ccnc1)Oc1cccc(Cl)c1` (centres unmarked) [Example 9, 2-(3-chlorophenoxy)-1-imidazolyl-(1)-4,4-dimethyl-pentan-3-one], the MIC in test [1] was determined as 16 µg/mL (≈ 52.2 µM); in test [2], 4 µg/mL (≈ 13 µM); in test [3], 4 µg/mL (≈ 13 µM); in test [4], 4 µg/mL (≈ 13 µM).

Take `CC(C)(C)C(=O)C(Cn1ccnc1)Oc1ccc(F)cc1` (centres unmarked) [Example 7, 2-(4-fluorophenoxy)-1-imidazolyl-(1)-4,4-dimethyl-pentan-3-one]: the MIC was 32 µg/mL (≈ 110 µM) in test [1], 4 µg/mL (≈ 13.8 µM) in test [2], 4 µg/mL (≈ 13.8 µM) in test [3] and 8 µg/mL (≈ 27.6 µM) in test [4].

For the molecule `CC(C)(C)C(=O)C(Cn1ccnc1)Oc1ccccc1Cl` (centres unmarked) [Example 8, 2-(2-chlorophenoxy)-1-imidazolyl-(1)-4,4-dimethyl-pentan-3-one], the MIC was determined as 16 µg/mL (≈ 52.2 µM) in test [1], 4 µg/mL (≈ 13 µM) in test [2], 4 µg/mL (≈ 13 µM) in test [3] and 8 µg/mL (≈ 26.1 µM) in test [4].

As to `CC(C)(C)C(=O)C(Cn1ccnc1)Oc1ccc(Br)cc1` (centres unmarked) [Example 6, 2-(4-bromophenoxy)-1-imidazolyl-(1)-4,4-dimethyl-pentan-3-one], the MIC was determined as 16 µg/mL (≈ 45.6 µM) in test [1], 4 µg/mL (≈ 11.4 µM) in test [2], 4 µg/mL (≈ 11.4 µM) in test [3] and 8 µg/mL (≈ 22.8 µM) in test [4].
